The source of these data is PubChem BioAssay (NCI).

Some test systems named below: OVCAR-5 ovarian; A498 renal; U251 CNS; HCT-116 colon; SN12C renal; 786-0 renal; NCI-H522 lung; HT29 colon; CCRF-CEM leukemia; HOP-62 NSCLC; SK-MEL-2 melanoma; SF-268 CNS; DU-145 prostate; UACC-257 melanoma; BT-549 breast; COLO 205 colon; M14 melanoma; MALME-3M melanoma; RPMI-8226 leukemia; SR leukemia.
Common to all, as to assay: growth of human tumour cells (NCI), 48 h

SMILES strings stand for the structures.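 Cultured in 96-well plates, cells were exposed to test compound for 48 hours across five concentrations. The concentration for full growth arrest is given as TGI.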 Where only a bound is given, the exact number is not on record here.

As for `Nc1nc(NCC2(CO)CC(CCc3ccccc3)C2)cc(=O)[nH]1` (centres undefined), the TGI in the assay with OVCAR-5 ovarian, in the assay with A498 renal, with U251 CNS, with HCT-116 colon, with SN12C renal and with 786-0 renal was greater than 100 µM each time. In addition, the TGI with NCI-H522 lung, in the assay with HT29 colon, in the assay with CCRF-CEM leukemia, in the assay with HOP-62 NSCLC, in the assay on SK-MEL-2 melanoma and in the assay on SF-268 CNS was greater than 100 µM throughout. Moreover, the TGI in the assay on DU-145 prostate, in the assay on UACC-257 melanoma, in the assay on BT-549 breast, with COLO 205 colon, with M14 melanoma and in the assay on MALME-3M melanoma was greater than 100 µM each time. The TGI with RPMI-8226 leukemia and with SR leukemia was greater than 100 µM in each case.
Take `O=C(O)c1nc2cc(C(F)(F)F)ccc2[nH]c1=O`: the TGI in the assay with OVCAR-5 ovarian, with A498 renal, in the assay on U251 CNS, in the assay with HCT-116 colon, in the assay on SN12C renal and with 786-0 renal was greater than 100 µM in each case. The TGI in the assay with NCI-H522 lung, in the assay with HT29 colon, in the assay with CCRF-CEM leukemia, with HOP-62 NSCLC, with SK-MEL-2 melanoma and in the assay on SF-268 CNS was greater than 100 µM each time. In addition, the TGI with DU-145 prostate, in the assay with UACC-257 melanoma, in the assay with BT-549 breast, in the assay with COLO 205 colon, in the assay with M14 melanoma and in the assay on MALME-3M melanoma was greater than 100 µM each time. The TGI in the assay with RPMI-8226 leukemia and in the assay with SR leukemia was greater than 100 µM throughout.
Turning to `Cc1cc(S(=O)(=O)Nc2nc(N)nc(N(C)C)n2)c(SC(C(=O)O)c2ccccc2)cc1Cl` (centres undefined), the TGI with OVCAR-5 ovarian, with A498 renal, in the assay with U251 CNS, with HCT-116 colon, in the assay on SN12C renal and with 786-0 renal was greater than 10 µM each time. In addition, the TGI in the assay with NCI-H522 lung, in the assay with HT29 colon, with CCRF-CEM leukemia, in the assay on HOP-62 NSCLC, with SK-MEL-2 melanoma and in the assay with SF-268 CNS was greater than 10 µM throughout. The TGI in the assay with DU-145 prostate, in the assay with UACC-257 melanoma, in the assay on BT-549 breast, in the assay on COLO 205 colon, in the assay with M14 melanoma and with MALME-3M melanoma was greater than 10 µM throughout. For the same compound, the TGI in the assay on RPMI-8226 leukemia and in the assay with SR leukemia was greater than 10 µM in each case.
Regarding `CCC(C)C(NC(=O)c1c2ccccc2nc2ccccc12)C(=O)O` (centres undefined), the TGI in the assay with OVCAR-5 ovarian, in the assay with A498 renal, in the assay with U251 CNS, in the assay on HCT-116 colon, in the assay on SN12C renal and in the assay on 786-0 renal was greater than 100 µM each time. Also, the TGI with NCI-H522 lung, in the assay with HT29 colon, in the assay on CCRF-CEM leukemia, in the assay on HOP-62 NSCLC, with SK-MEL-2 melanoma and in the assay with SF-268 CNS was greater than 100 µM throughout. Further, the TGI in the assay on DU-145 prostate is greater than 100 µM; with UACC-257 melanoma, greater than 100 µM; with BT-549 breast, 94.1 µM; with COLO 205 colon it was greater than 100 µM; with M14 melanoma, greater than 100 µM; with MALME-3M melanoma, greater than 100 µM. Further, the TGI in the assay with RPMI-8226 leukemia and in the assay on SR leukemia was greater than 100 µM each time.
With `O=[N+]([O-])c1cc(C(F)(F)F)ccc1S(=O)(=O)N[C@@H]1CCCC[C@H]1NS(=O)(=O)c1ccc(C(F)(F)F)cc1[N+](=O)[O-]`, the TGI with OVCAR-5 ovarian was greater than 100 µM; with A498 renal it was greater than 23.7 µM; with U251 CNS, 17.1 µM; in the assay with HCT-116 colon, 20.1 µM; with SN12C renal, 12.6 µM; in the assay on 786-0 renal it was greater than 42.2 µM. Moreover, the TGI with NCI-H522 lung was 4.76 µM; with HT29 colon it was 22.7 µM; with CCRF-CEM leukemia, 7.87 µM; in the assay on HOP-62 NSCLC it was 30.9 µM; in the assay on SK-MEL-2 melanoma, 9.88 µM; in the assay on SF-268 CNS, 7.24 µM. The TGI is greater than 75.7 µM in the assay with DU-145 prostate; greater than 100 µM in the assay on UACC-257 melanoma; 8.16 µM in the assay with BT-549 breast; 6.77 µM in the assay with COLO 205 colon; 8.95 µM with M14 melanoma; 8.05 µM in the assay with MALME-3M melanoma. Besides, the TGI in the assay with RPMI-8226 leukemia was greater than 22.3 µM; in the assay on SR leukemia it was greater than 26.2 µM.
Turning to `O=C1Cc2c(-c3ccccc3)cc(-c3ccc4ccccc4c3)nc2-c2ccccc2N1`, the TGI was greater than 100 µM in the assay on OVCAR-5 ovarian; 49.6 µM in the assay on A498 renal; greater than 100 µM in the assay on U251 CNS; greater than 100 µM in the assay with HCT-116 colon; 43.6 µM in the assay on SN12C renal; greater than 100 µM in the assay with 786-0 renal. In addition, the TGI with NCI-H522 lung was 26.1 µM; with HT29 colon, 15.9 µM; in the assay on CCRF-CEM leukemia, greater than 100 µM; in the assay with HOP-62 NSCLC, greater than 100 µM; in the assay on SK-MEL-2 melanoma, greater than 100 µM; with SF-268 CNS, 29.9 µM. Further, the TGI in the assay with DU-145 prostate is greater than 100 µM; with UACC-257 melanoma, greater than 100 µM; in the assay with BT-549 breast it was greater than 100 µM; in the assay on COLO 205 colon it was greater than 100 µM; with M14 melanoma, greater than 100 µM; in the assay on MALME-3M melanoma it was 31.9 µM. Moreover, the TGI in the assay with RPMI-8226 leukemia and in the assay with SR leukemia was greater than 100 µM in each case.
With `COC(=O)c1c2c(cc3c1CC1(C3)Cc3ccc4c(c3C1=O)CCC4)CCC2` (centres undefined), the TGI in the assay with OVCAR-5 ovarian is greater than 100 µM; with A498 renal, greater than 49.7 µM; with U251 CNS, greater than 94.3 µM; in the assay on HCT-116 colon, greater than 62.2 µM; in the assay with SN12C renal, greater than 100 µM; with 786-0 renal, greater than 56.1 µM. The TGI in the assay on NCI-H522 lung is 6.19 µM; in the assay with HT29 colon, 8.45 µM; in the assay with CCRF-CEM leukemia, greater than 81.8 µM; in the assay on HOP-62 NSCLC, greater than 30 µM; in the assay on SK-MEL-2 melanoma, 27 µM; in the assay with SF-268 CNS, greater than 100 µM. The TGI was greater than 100 µM in the assay with DU-145 prostate; greater than 100 µM in the assay on UACC-257 melanoma; greater than 42.9 µM with BT-549 breast; 18.6 µM in the assay with M14 melanoma; greater than 45.5 µM in the assay with MALME-3M melanoma; greater than 72.6 µM with RPMI-8226 leukemia. The compound further had a TGI in the assay on SR leukemia greater than 21.9 µM.
